# Read-outs that look alike come from different tables or passages of the source.
# What was measured:
# [1] = system: S. mutans; assay: Acid inhibition (AI): 0.1 normal NaOH needed to neutralize acid produced by S. mutans from sucrose after 48 hours; assay type: cell-based; conditions: trypticase-yeast medium containing sucrose, 48 hours incubation
# Method: Acid inhibition (AI) is a measure of acid production when S. mutans attacks sucrose to form pyruvic and lactic acids. The organism is added to a culture medium (trypticase-yeast) containing sucrose, and after 48 hours incubation, the quantity of 0.1 normal NaOH (in ml) needed to neutralize the acid is measured.
# [2] = system: S. mutans; assay: Minimum inhibitory and minimum bactericidal concentrations against S. mutans grown in a typical culture medium; assay type: cell-based; conditions: Streptococcus mutans; for MBC: read-out: MBC (minimum bactericidal concentration); for MIC: read-out: MIC (minimum inhibitory concentration)
# [3] = system: S. mutans; assay: Plaque inhibition in the hamster (S. mutans infected); assay type: in vivo, Golden Syrian hamsters; conditions: Test 2; mean scoring value (approximate percentage of surface); 28 days, 0.3% Methocel suspension, 200 μl per treatment; Methocel control 13.96 ± 1.49; significantly different from control at p ≤ 0.01
# Method: Representative thiouronium phosphonates were tested against hamsters as in vivo subjects, as follows.
# Golden Syrian hamsters (3-4 wks of age), obtained from GIBCO Animal Resources Laboratories, Madison, Wis. were used in all studies. Upon receipt, the animals were randomly distributed into cages of three animals of the same sex per cage. Experimental groups consisted of twelve animals, six males and six females. Food (Diet 2000, General Biochemicals Co.) and deionized water were allowed ad libitum. Food consumption was monitored three times a week while animal weights were checked twice a week.
# After an acclimation period of 10 days, the oral cavities of the hamsters were infected with a cariogenic strain of S. mutans (ATCC 10449, SR 500). This was accomplished by injecting […] of a 24 hr. culture grown static in Todd-Hewitt broth (supplemented with 0.5% lactalbumin hydrolysate) into their mouths, and by adding 2 ml/100 ml of the culture to their drinking water. This was repeated daily for four days. On the fifth day, fresh water was given to the hamsters.
# To insure that the organism had actually implanted, the oral cavity of each hamster was swabbed on the sixth day. […]
# After all data had been recorded, the codes were broken, the data re-grouped and the various treatment groups compared by a non-parametric one-way analysis of variance.
# [4] = against S. mutans grown in a typical culture medium
compound,measurement,setting,value
"CCCCCCCCCCCCCSC(=N)N [n=13, R=C6 H5, Tridecyl thiouronium phenylphosphonate]",AI (acid inhibition; amount of 0.1 normal NaOH required),[1],0.3 mL
same,MBC,[2]; [4],2 µg/mL
same,MIC,[2]; [4],1 µg/mL
same,Molar Surface Covered with Plaque,[3],7.06 ± 1.16
"CCCCCCCCCCSC(=N)N [n=10, R=C6 H5, n-Decyl thiouronium phenylphosphonate]",AI (acid inhibition; amount of 0.1 normal NaOH required),[1],1.25 mL
same,MBC,[2]; [4],3.9 µg/mL
same,MIC,[2]; [4],2 µg/mL
"CCCCCCCCCCCCCCSC(=N)N [n=14, R=CH3, n-Tetradecyl thiouronium methanephosphonate]",AI (acid inhibition; amount of 0.1 normal NaOH required),[1],0.5 mL
same,MBC,[2],7.8 µg/mL
same,MIC,[2],1 µg/mL
"CCCCCCCCCCCSC(=N)N [n=11, R=C6 H5]",AI (acid inhibition; amount of 0.1 normal NaOH required),[1],0.5 mL
same,MBC,[2]; [4],2 µg/mL
same,MIC,[2]; [4],1 µg/mL

# Source: patent publication US4435381A, “Thiouronium phosphonates for use in dental treatments” (priority 1983, dated 1984)
